Reference: PMC10600239, “Selective MCL-1 inhibitor ABBV-467 is efficacious in tumor models but is associated with cardiac troponin increases in patients” (Communications Medicine, 2023)
Read-outs that look alike come from different tables or passages of the source.

What was measured:
BCL-XL = BCL-XL (Homo sapiens, UniProt Q07817); assay: Time-resolved FRET binding assay
Protocol: Binding affinities for MCL-1, BCL-2, BCL-XL, BCL-W, and BCL2-A1 were determined using a time-resolved fluorescence resonance energy transfer (FRET) assay. Test compounds were serially diluted in DMSO starting at […] (20× starting concentration; 100% DMSO followed by a 1:10 dilution of the compound DMSO plate into assay buffer); 10 µL of the compound in 10% DMSO was then transferred into a 384-well plate (low-volume Corning #3673 assay plate). Glutathione S-transferase (GST)-tagged recombinant BCL-2, BCL-XL, MCL-1, BCL-W, or BCL2-A1 protein (1 nM each) were mixed with 100 nM Oregon Green™-labeled f-BAK peptide probe and 1 nM Tb-labeled anti-GST antibody were mixed. Then 10 µL of a 2× protein/probe/antibody mix was added to each well of increasing concentrations of test compound in assay buffer (20 mM potassium phosphate, pH 7.6, 50 mM NaCl, 1 mM ethylenediaminetetraacetic acid disodium salt dihydrate, 0.05% pluronic acid F-68, 1 mM DL-dithiothreitol) at room temperature (final concentrations listed in Supplementary Table S2). The samples were then mixed on a shaker for 1 min and incubated for an additional 1 h at room temperature. For each assay plate, a probe/antibody and protein/antibody/probe mixture were included as a negative and a positive control, respectively. Fluorescence was measured on the EnVision™ (Perkin Elmer) using a 340/35-nm excitation filter and 520/525- (F-Bak) and 495/510-nm (Tb-labeled anti-glutathione S-transferase [GST] antibody) emission filters. Dissociation constants were determined using Wang’s equation[35]. The time-resolved FRET assay can be performed in the presence of varying concentrations of human serum to determine apparent half-maximal inhibitory concentration after serum protein binding.

troponin = assay: Troponin monitoring in phase 1 patients; format: in vivo, human; conditions: for Troponin I, Local Lab: reference range 2.3 to 20 ng/L
Protocol: Blood samples for plasma ABBV-467 concentration analysis were collected on days 1, 2, 3, and 15–17 of cycle 1 as well as on days 1 of cycles for PK analysis. Plasma samples of ABBV-467 were quantified using a validated LC-tandem MS with a lower limit of detection of 3 ng/mL. ABBV-467 PK parameters were calculated using standard non-compartmental approaches with Phoenix, WinNonlin (Version 8.0, Certara). AE severity was graded according to the National Cancer Institute Common Terminology Criteria for Adverse Events v5.0 for up to 30 days after the last dose. Analyses of AEs will include only treatment-emergent AEs. Triplicate ECGs were performed on days 1, 2, 15, and 16 of cycle 1. […] An echocardiogram was performed at screening and day 1 of cycle 2 and cycle 6. […]
Creatine Phosphokinase and Troponin Enzymes
Blood samples will be collected on the days specified in Section 2 for analysis of creatine phosphokinase and troponin serum concentrations. Clinical significance of these enzymes will be evaluated within the […]
context of the study. Samples should also be obtained as clinically indicated in the opinion of the investigator.
Table 9. Creatine Phosphokinase and Troponin Sampling Times […]
4, 8, 24, and 48 hours post-EOI
4, 8, 24 and 48 hours post-EOI
Sample times are relative to ABBV-467 infusion. […]

Sequence of BCL-XL (Q07817 whole entry): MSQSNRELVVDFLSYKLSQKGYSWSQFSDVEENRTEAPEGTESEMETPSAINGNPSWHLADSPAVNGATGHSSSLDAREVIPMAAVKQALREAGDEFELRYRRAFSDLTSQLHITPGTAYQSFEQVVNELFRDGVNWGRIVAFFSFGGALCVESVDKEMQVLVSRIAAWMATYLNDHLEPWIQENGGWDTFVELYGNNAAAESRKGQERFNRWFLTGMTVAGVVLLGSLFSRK

`Cc1c(Cl)c2c(Cl)c(C)c1-c1c(-c3ccc(F)cc3)sc3ncnc(c13)O[C@@H](C(=O)O)Cc1cc(ccc1OCc1ccnc(-c3ccc(OC[C@H]4COCCO4)cc3)n1)OC[C@@H](CN1CCN(C)CC1)O2` [ABBV-467] gave a Ki (BCL-XL; TR-FRET, arithmetic mean, read-out: Arithmetic Mean Ki, BCL-XL) greater than 376 nM, a Ki (BCL-XL; TR-FRET, individual determinations, read-out: Individual Ki, BCL-XL) greater than 376 nM and a Ki (BCL-XL; read-out: TR-FRET, Ki, nM BCL-XL) greater than 376 nM. The “Troponin I, Central Laboratory” value (troponin; Patient 1, C1D1, study day 1, reference range ≤ 0.04 ng/mL, Advia Centaur TnI-Ultra Assay) was less than 0.03 ng/mL, the “Troponin I, Central Laboratory” value (troponin; Patient 1, C1D2, study day 2, reference range ≤ 0.04 ng/mL) was less than 0.03 ng/mL and the “Troponin I, Central Laboratory” value (troponin; Patient 1, C1D15, study day 15, reference range ≤ 0.04 ng/mL) was less than 0.03 ng/mL. The “Troponin I, Central Laboratory” value (troponin; Patient 1, C1D16, study day 16, reference range ≤ 0.04 ng/mL) was less than 0.03 ng/mL, the “Troponin I, Central Laboratory” value (troponin; Patient 1, C1D17, study day 17, reference range ≤ 0.04 ng/mL) was less than 0.03 ng/mL and the “Troponin I, Central Lab” value (troponin; Patient 2, C1D1, study day 1, reference range ≤0.04 ng/mL) was less than 0.03 ng/mL. The “Troponin I, Central Lab” value (troponin; Patient 2, C1D2, study day 2, reference range ≤0.04 ng/mL) was less than 0.03 ng/mL, the “Troponin I, Central Lab” value (troponin; Patient 2, C1D3, study day 3, reference range ≤0.04 ng/mL) was less than 0.03 ng/mL and the “Troponin I, Central Lab” value (troponin; Patient 2, C1D8, study day 8, reference range ≤0.04 ng/mL) was less than 0.03 ng/mL. For the same compound, the “Troponin I, Central Lab” value (troponin; Patient 2, C1D16, study day 16, 4 hr postdose, reference range ≤0.04 ng/mL) was 0.24 (4 hr postdose) ng/ml, the “Troponin I, Central Lab” value (troponin; Patient 2, C1D16, study day 16, 8 hr postdose, reference range ≤0.04 ng/mL) was <0.03 (8 hr postdose) ng/ml and the “Troponin I, Central Lab” value (troponin; Patient 2, C1D17, study day 17, reference range ≤0.04 ng/mL) was 0.15 ng/mL. The “Troponin I, Central Lab” value (troponin; Patient 2, C1D18, study day 18, reference range ≤0.04 ng/mL) was 0.08 ng/mL, the “Troponin I, Local Lab” value (troponin; Patient 3, C1D1, study day 1, Beckman Coulter ACCESS high sensitivity Troponin I assay) was 8.1 ng/L and the “Troponin I, Central Lab” value (troponin; Patient 3, C1D1, study day 1, reference range ≤ 0.04 ng/mL) was less than 0.03 ng/mL. For the same compound, the “Troponin I, Local Lab” value (troponin; Patient 3, C1D2, study day 2) was 7.3 ng/L, the “Troponin I, Central Lab” value (troponin; Patient 3, C1D2, study day 2, reference range ≤ 0.04 ng/mL) was less than 0.03 ng/mL and the “Troponin I, Local Lab” value (troponin; Patient 3, C1D3, study day 3) was 10.2 ng/L. The “Troponin I, Central Lab” value (troponin; Patient 3, C1D3, study day 3, reference range ≤ 0.04 ng/mL) was less than 0.03 ng/mL, the “Troponin I, Local Lab” value (troponin; Patient 3, C1D4, study day 4) was 7.4 ng/L and the “Troponin I, Local Lab” value (troponin; Patient 3, C1D5, study day 5) was 7.3 ng/L. The “Troponin I, Local Lab” value (troponin; Patient 3, C1D9, study day 9) was 7.8 ng/L, the “Troponin I, Local Lab” value (troponin; Patient 3, C1D11, study day 11) was 37.7 ng/L and the “Troponin I, Local Lab” value (troponin; Patient 3, C1D12, study day 12) was 27.2 ng/L. The “Troponin I, Central Lab” value (troponin; Patient 3, C1D12, study day 12, reference range ≤ 0.04 ng/mL) was 0.05 ng/mL, the “Troponin I, Local Lab” value (troponin; Patient 3, C1D15 (No infusion; drug discontinued), study day 15) was 16.5 ng/L and the “Troponin I, Central Lab” value (troponin; Patient 4, C1D1, study day 1, 4hr postdose, reference range ≤ 0.04 ng/mL) was <0.03 (4hr postdose) ng/ml. The “Troponin I, Central Lab” value (troponin; Patient 4, C1D1, study day 1, 8hr postdose, reference range ≤ 0.04 ng/mL) was <0.03 (8hr postdose) ng/ml, the “Troponin I, Central Lab” value (troponin; Patient 4, C1D1, study day 1, predose, reference range ≤ 0.04 ng/mL) was <0.03 (predose) ng/ml and the “Troponin I, Central Lab” value (troponin; Patient 4, C1D2, study day 2, reference range ≤ 0.04 ng/mL) was less than 0.03 ng/mL. The “Troponin I, Central Lab” value (troponin; Patient 4, C1D3, study day 3, reference range ≤ 0.04 ng/mL) was less than 0.03 ng/mL, the “Troponin I, Central Lab” value (troponin; Patient 4, C1D15, study day 15, 4 hr postdose, reference range ≤ 0.04 ng/mL) was 0.06 (4 hr postdose) ng/ml and the “Troponin I, Central Lab” value (troponin; Patient 4, C1D15, study day 15, 8 hr postdose, reference range ≤ 0.04 ng/mL) was 0.04 ( 8 hr postdose) ng/ml. The “Troponin I, Central Lab” value (troponin; Patient 4, C1D15, study day 15, predose, reference range ≤ 0.04 ng/mL) was 0.04 (predose) ng/ml, the “Troponin I, Central Lab” value (troponin; Patient 4, C1D16, study day 16, reference range ≤ 0.04 ng/mL) was 0.04 ng/mL and the “Troponin I, Central Lab” value (troponin; Patient 4, C1D17, study day 17, reference range ≤ 0.04 ng/mL) was 0.05 ng/mL. For the same compound, the “Troponin I, Central Lab” value (troponin; Patient 4, C2D1, study day 29, postdose, reference range ≤ 0.04 ng/mL) was <0.03 (postdose) ng/ml, the “Troponin I, Central Laboratory” value (troponin; Patient 5, C1D1 4hr Post EOI, study day 1, reference range ≤0.04 ng/mL) was less than 0.03 ng/mL and the “Troponin I, Central Laboratory” value (troponin; Patient 5, C1D1 8hr post EOI, study day 1, reference range ≤0.04 ng/mL) was less than 0.03 ng/mL. For the same compound, the “Troponin I, Central Laboratory” value (troponin; Patient 5, C1D1 Predose, study day 1, reference range ≤0.04 ng/mL) was less than 0.03 ng/mL, the “Troponin I, Central Laboratory” value (troponin; Patient 5, C1D2 24h post EOI, study day 2, reference range ≤0.04 ng/mL) was less than 0.03 ng/mL and the “Troponin I, Central Laboratory” value (troponin; Patient 5, C1D3 48hr Post EOI, study day 3, reference range ≤0.04 ng/mL) was less than 0.03 ng/mL. For the same compound, the “Troponin I, Central Laboratory” value (troponin; Patient 5, C1D15 4hr Post EOI, study day 15, reference range ≤0.04 ng/mL) was less than 0.03 ng/mL, the “Troponin I, Central Laboratory” value (troponin; Patient 5, C1D15 8h post EOI, study day 15, reference range ≤0.04 ng/mL) was less than 0.03 ng/mL and the “Troponin I, Central Laboratory” value (troponin; Patient 5, C1D15 Predose, study day 15, reference range ≤0.04 ng/mL) was less than 0.03 ng/mL. The “Troponin I, Central Laboratory” value (troponin; Patient 5, C1D16 24h post EOI, study day 16, reference range ≤0.04 ng/mL) was less than 0.03 ng/mL, the “Troponin I, Central Laboratory” value (troponin; Patient 5, C1D17 48hr Post EOI, study day 17, reference range ≤0.04 ng/mL) was less than 0.03 ng/mL and the “Troponin I, Central Laboratory” value (troponin; Patient 6, C1D1 4hr Post EOI, study day 1, reference range ≤0.04 ng/mL) was less than 0.03 ng/mL.
